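All cell lines were grown in 96-well plates and treated with compound for 48 hours. TGI is the concentration that stops growth completely.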
Legend:
Experiment in all cases: DTP human tumour cell line panel, 48 h
[1] = test system: 786-0 renal
[2] = test system: A498 renal
[3] = test system: A549 NSCLC
[4] = test system: ACHN renal
[5] = test system: BT-549 breast
[6] = test system: CAKI-1 renal
[7] = test system: CCRF-CEM leukemia
[8] = test system: COLO 205 colon
[9] = test system: DU-145 prostate
[10] = test system: EKVX NSCLC
[11] = test system: HCT-116 colon
[12] = test system: HCT-15 colon
[13] = test system: HL-60(TB) leukemia
[14] = test system: HOP-92 NSCLC
[15] = test system: HS 578T breast
[16] = test system: HT29 colon
[17] = test system: IGROV1 ovarian
[18] = test system: K-562 leukemia
[19] = test system: KM12 colon
[20] = test system: LOX IMVI melanoma
[21] = test system: M14 melanoma
[22] = test system: MALME-3M melanoma
[23] = test system: MCF7 breast
[24] = test system: MDA-MB-231 breast
[25] = test system: MDA-MB-435
[26] = test system: MDA-N
[27] = test system: MOLT-4 leukemia
[28] = test system: NCI-H226 lung
[29] = test system: NCI-H23 lung
[30] = test system: NCI-H522 lung
[31] = test system: NCI/ADR-RES ovarian
[32] = test system: OVCAR-3 ovarian
[33] = test system: OVCAR-4 ovarian
[34] = test system: OVCAR-5 ovarian
[35] = test system: OVCAR-8 ovarian
[36] = test system: PC-3 prostate
[37] = test system: RPMI-8226 leukemia
[38] = test system: SF-268 CNS
[39] = test system: SF-539 CNS
[40] = test system: SK-MEL-2 melanoma
[41] = test system: SK-MEL-28 melanoma
[42] = test system: SK-MEL-5 melanoma
[43] = test system: SK-OV-3 ovarian
[44] = test system: SNB-19 CNS
[45] = test system: SNB-75 CNS
[46] = test system: SR leukemia
[47] = test system: SW-620 colon
[48] = test system: TK-10 renal
[49] = test system: U251 CNS
[50] = test system: UACC-257 melanoma
[51] = test system: UACC-62 melanoma
[52] = test system: UO-31 renal
[53] = test system: HCC-2998 colon
[54] = test system: HOP-62 NSCLC
[55] = test system: NCI-H460 lung
[56] = test system: RXF 393 renal
[57] = test system: SF-295 CNS
[58] = test system: SN12C renal

## CC(=O)/C=c1\[nH]/c(=C\C=C\c2ccccc2)c(=O)n1/C=C1\C(=O)Oc2ccccc2C1=O
[1]
  TGI: > 100 µM
[2]
  TGI: > 100 µM
[3]
  TGI: > 100 µM
[4]
  TGI: > 100 µM
[5]
  TGI: > 100 µM
[6]
  TGI: > 100 µM
[7]
  TGI: > 100 µM
[8]
  TGI: > 100 µM
[9]
  TGI: > 100 µM
[10]
  TGI: > 100 µM
[11]
  TGI: > 100 µM
[12]
  TGI: > 100 µM
[13]
  TGI: > 100 µM
[14]
  TGI: > 100 µM
[15]
  TGI: > 100 µM
[16]
  TGI: > 100 µM
[17]
  TGI: > 100 µM
[18]
  TGI: > 100 µM
[19]
  TGI: > 100 µM
[20]
  TGI: > 100 µM
[21]
  TGI: > 100 µM
[22]
  TGI: > 100 µM
[23]
  TGI: > 100 µM
[24]
  TGI: > 100 µM
[25]
  TGI: > 100 µM
[26]
  TGI: > 100 µM
[27]
  TGI: > 100 µM
[28]
  TGI: > 100 µM
[29]
  TGI: > 100 µM
[30]
  TGI: > 100 µM
[31]
  TGI: > 100 µM
[32]
  TGI: > 100 µM
[33]
  TGI: > 100 µM
[34]
  TGI: > 100 µM
[35]
  TGI: > 100 µM
[36]
  TGI: > 100 µM
[37]
  TGI: > 100 µM
[38]
  TGI: > 100 µM
[39]
  TGI: > 100 µM
[40]
  TGI: > 100 µM
[41]
  TGI: > 100 µM
[42]
  TGI: > 100 µM
[43]
  TGI: > 100 µM
[44]
  TGI: > 100 µM
[45]
  TGI: > 100 µM
[46]
  TGI: > 100 µM
[47]
  TGI: > 100 µM
[48]
  TGI: > 100 µM
[49]
  TGI: > 100 µM
[50]
  TGI: > 100 µM
[51]
  TGI: > 100 µM
[52]
  TGI: > 100 µM

## CCCCCCN1CCc2c(C)c(C#N)c3nc4ccccc4n3c21
[1]
  TGI: > 100 µM
[2]
  TGI: > 100 µM
[3]
  TGI: > 100 µM
[4]
  TGI: > 100 µM
[5]
  TGI: > 100 µM
[8]
  TGI: > 100 µM
[9]
  TGI: > 100 µM
[53]
  TGI: > 100 µM
[11]
  TGI: > 100 µM
[12]
  TGI: > 100 µM
[13]
  TGI: > 100 µM
[54]
  TGI: > 100 µM
[14]
  TGI: > 100 µM
[15]
  TGI: 75.6 µM
[16]
  TGI: > 100 µM
[17]
  TGI: > 100 µM
[18]
  TGI: > 100 µM
[20]
  TGI: > 100 µM
[21]
  TGI: > 100 µM
[22]
  TGI: > 100 µM
[23]
  TGI: 41.5 µM
[24]
  TGI: > 100 µM
[25]
  TGI: 93.8 µM
[26]
  TGI: > 100 µM
[28]
  TGI: > 100 µM
[29]
  TGI: > 100 µM
[55]
  TGI: > 100 µM
[30]
  TGI: > 100 µM
[31]
  TGI: > 100 µM
[32]
  TGI: > 100 µM
[33]
  TGI: > 100 µM
[34]
  TGI: > 100 µM
[35]
  TGI: > 100 µM
[36]
  TGI: > 100 µM
[56]
  TGI: > 100 µM
[38]
  TGI: > 100 µM
[57]
  TGI: > 100 µM
[39]
  TGI: > 100 µM
[40]
  TGI: > 100 µM
[41]
  TGI: > 100 µM
[42]
  TGI: > 100 µM
[43]
  TGI: > 100 µM
[58]
  TGI: > 100 µM
[44]
  TGI: > 100 µM
[45]
  TGI: > 100 µM
[46]
  TGI: > 100 µM
[47]
  TGI: > 100 µM
[48]
  TGI: > 100 µM
[49]
  TGI: > 100 µM
[50]
  TGI: > 100 µM
[51]
  TGI: > 100 µM
[52]
  TGI: > 100 µM

## O=c1c2cc(I)ccc2nc(Sc2ccc([N+](=O)[O-])cc2[N+](=O)[O-])n1Cc1ccccc1
[1]
  TGI: 2.25 µM
[2]
  TGI: 21.3 µM
[3]
  TGI: > 85 µM
[4]
  TGI: 26.1 µM
[5]
  TGI: 9.46 µM
[6]
  TGI: 24.7 µM
[8]
  TGI: 17.2 µM
[9]
  TGI: 12.7 µM
[10]
  TGI: 17.4 µM
[53]
  TGI: 11.1 µM
[11]
  TGI: 2.71 µM
[12]
  TGI: 3.82 µM
[13]
  TGI: 5.5 µM
[54]
  TGI: 12.3 µM
[14]
  TGI: 8.56 µM
[15]
  TGI: > 36.1 µM
[16]
  TGI: 13.6 µM
[17]
  TGI: 6.42 µM
[18]
  TGI: > 100 µM
[19]
  TGI: > 31.2 µM
[20]
  TGI: 2.89 µM
[21]
  TGI: 5.31 µM
[22]
  TGI: 17.1 µM
[23]
  TGI: 5.59 µM
[24]
  TGI: 16.9 µM
[25]
  TGI: 5.35 µM
[26]
  TGI: 3.89 µM
[27]
  TGI: > 100 µM
[28]
  TGI: 10.3 µM
[29]
  TGI: 14.2 µM
[55]
  TGI: 29 µM
[30]
  TGI: 2.57 µM
[31]
  TGI: 5.44 µM
[32]
  TGI: 4.87 µM
[33]
  TGI: 15.6 µM
[34]
  TGI: 22.7 µM
[35]
  TGI: 4.58 µM
[36]
  TGI: 13.8 µM
[37]
  TGI: > 20.1 µM
[56]
  TGI: 12.4 µM
[38]
  TGI: 3.77 µM
[57]
  TGI: 35.3 µM
[39]
  TGI: 4.09 µM
[40]
  TGI: 3.73 µM
[41]
  TGI: 35.2 µM
[42]
  TGI: 17.8 µM
[43]
  TGI: > 56.8 µM
[58]
  TGI: 2.95 µM
[44]
  TGI: 20.4 µM
[45]
  TGI: 16.7 µM
[46]
  TGI: > 100 µM
[47]
  TGI: > 100 µM
[48]
  TGI: 20.7 µM
[49]
  TGI: 13.2 µM
[50]
  TGI: 15.4 µM
[51]
  TGI: 7.24 µM
[52]
  TGI: 4.13 µM
